In PMC7508583, “Discovery and Preclinical Development of Antigiardiasis Fumagillol Derivatives” (Antimicrobial Agents and Chemotherapy, 2020):
Like-named read-outs stand apart in the source and are kept apart here.

Key:
Assay in all cases: Trophozoite growth inhibition, ATP content (ATPlite) assay
[1] = tested on: G. lamblia GS trophozoites; format: cell-based, Giardia lamblia; details: Giardia duodenalis, 72 h, read-out: Mean [IC50 ± SE(IC50)] G. lamblia GS
Protocol: (§1) Antigiardia assays followed by enzyme inhibition determination facilitated the selection of compounds for permeation and stability studies by in vitro methods, prior to advancing to in vivo studies. Compound potency was evaluated first by measuring G. lamblia trophozoite growth as a function of the compound concentration and calculating the IC50 values. Potency in Entamoeba histolytica trophozoites was also determined because of the early report that fumagillin cured amebiasis ([19]). The intent was to test whether the compounds would be suitable to treat gastrointestinal amebiasis rather than the invasive form of the disease, given that the designed strategy was based on reducing compound permeation across the epithelial cell barrier. […] Trophozoite growth was determined by monitoring the ATP cell content using a high-throughput homogeneous assay developed previously for G. lamblia ([57]). The ATP content serves as a marker of cell integrity since ATP degrades rapidly when cells die and the luminescence signal generated by luciferase requires ATP. The same assay was also adopted in 96-well plates for E. histolytica trophozoite growth measurement, as described in Materials and Methods. A similar E. histolytica trophozoite ATP content assay was described previously ([58]). Fumagillin, TNP-470, and a standard-of-care drug (metronidazole) served as positive controls, and cells without the drug (in the presence of 0.5% dimethyl sulfoxide [DMSO]) served as the negative control.
(§2) Trophozoites of G. lamblia isolates WB and GS were grown anaerobically in borosilicate glass screw-cap culture tubes (Fisher Scientific) at pH 7.0 in Keister’s modified TYI-S-33 medium (ATCC). The medium was supplemented with 10% heat-inactivated bovine serum (Sigma-Aldrich) and 0.05% bovine bile (Sigma-Aldrich). To attain low-oxygen-tension conditions, the tubes were filled to 85% to 90% of their total volume capacity and incubated without shaking at 37°C. Subcultures (2 × 10^5 trophozoites per tube) were made three times a week. Detachment of trophozoites for inoculation was achieved by chilling the cultures on ice for 20 min. Culturing and detachment of metronidazole-resistant G. lamblia assemblage A 713M3 and assemblage B 1279-M1 trophozoites followed the same protocol, except that the growth medium was supplemented with metronidazole, with the concentration gradually being increased to 10 μM.
(§3) The growth inhibition assays were performed in duplicate, once for each compound, for all compounds except fumagillin, which served as a positive control and whose inhibitory ability was measured multiple times as new sets of compounds were tested. All dry compounds except for fumagillin were dissolved in dimethyl sulfoxide (DMSO; Sigma) at a stock concentration of 10 mM and then diluted 1:100 in growth medium to a final compound concentration of 100 μM; fumagillin was diluted to 20 μM. Compound solution aliquots (100 μl) were prepared by 3-fold serial dilutions in growth medium containing 0.5% DMSO and distributed into 96-well assay plates. This was followed by the addition of 10 μl G. lamblia or E. histolytica culture containing 10,000 trophozoites. Fumagillin served as a positive control, and the medium-diluted DMSO alone served as a negative control. The assay plates were placed in a BD GasPak EZ container system (BD Diagnostics) to create an anaerobic growth environment. The sealed containers were incubated at 37°C for 72 h. Following incubation, 70 μl/well of the ATPlite reagent (PerkinElmer) was added to the assay plates for one-step lysis and ATP level detection. The luminescent signals of the assay plates were measured on an EnSpire 2300 plate reader (PerkinElmer). Concentration-response titration points for each compound were fitted to a 4-parameter logistic nonlinear regression model using the KaleidaGraph tool, yielding the IC50 value and standard error (SE).

[2] = tested on: G. lamblia WB trophozoites; format: cell-based; details: Giardia duodenalis, 72 h, read-out: Mean [IC50 ± SE(IC50)] G. lamblia WB
Protocol: as §1, §2, §3

[3] = tested on: E. histolytica HM1:IMSS trophozoites; format: cell-based; details: Entamoeba histolytica, 72 h, read-out: Mean [IC50 ± SE(IC50)] E. histolytica HM1: IMSS
Protocol: as §1
E. histolytica strain HM1:IMSS trophozoites were grown at 37°C in TYI-S-33 medium supplemented with penicillin (100 U/ml) and streptomycin sulfate (100 μg/ml) ([65]). Trophozoites were grown anaerobically in borosilicate tubes or T25 flasks, and subcultures were made 1 to 2 times a week. Trophozoites were detached for inoculation by chilling the cultures on ice for 20 min.
as §3, with “The sealed containers were incubated at 37°C for 72 h.” left out

[4] = trophozoite growth, ATP content

CO[C@@H]1[C@H](OC(=O)/C=C/C=C/C=C/C=C/C(=O)O)CC[C@]2(CO2)[C@H]1[C@@]1(C)O[C@@H]1CC=C(C)C [Fumagillin, reference compound]
IC50 [1]: 9 ± 2.2 nM
IC50 [2]: 9.5 ± 2.2 nM
IC50 [3]: 47.9 ± 4.8 nM

COC1C(OC(=O)NC(=O)CN2CCOCC2)CCC2(CO2)C1C1(C)OC1CC=C(C)C (stereo not drawn) [Compound 3]
IC50 [1, 4]: 1.5 ± 0.1 nM
IC50 [2, 4]: 1.6 ± 0.1 nM
IC50 [3, 4]: 4 ± 0.1 nM

CCOC(=O)Cc1ccc(NC(=O)OC2CCC3(CO3)C(C3(C)OC3CC=C(C)C)C2OC)cc1 (stereo not drawn) [Compound 11]
IC50 [1, 4]: 3.1 ± 0.5 nM
IC50 [2, 4]: 7.4 ± 1.3 nM
IC50 [3, 4]: 43 ± 3.4 nM

COC1C(OC(=O)N2CCC(O)CC2)CCC2(CO2)C1C1(C)OC1CC=C(C)C (stereo not drawn) [Compound 16]
IC50 [1, 4]: 1.2 ± 0.04 nM
IC50 [2, 4]: 2.6 ± 0.2 nM
IC50 [3, 4]: 2.9 ± 0.2 nM

CO[C@@H]1[C@H](OC(=O)Nc2ccc(C(=O)O)cc2)CC[C@]2(CO2)[C@H]1[C@@]1(C)O[C@@H]1CC=C(C)C [Compound 9, 4-(((((3R,4S,5S,6R)-5-methoxy-4-((2R,3R)-2-methyl-3-(3-methylbut-2-en-1-yl)oxiran-2-yl)-1-oxaspiro[2.5]octan-6-yl)oxy)carbonyl)amino)benzoic acid]
IC50 [1, 4]: 3.8 ± 0.6 nM
IC50 [2, 4]: 6.3 ± 0.7 nM
IC50 [3]: 6.7 ± 0.5 nM

Cc1ncc([N+](=O)[O-])n1CCO [Metronidazole, reference compound]
IC50 [1, 4]: 12700 ± 1340 nM
IC50 [2, 4]: 5570 ± 877 nM
IC50 [3, 4]: 318 ± 16 nM

COC1C(OC(=O)NC(=O)CN2CCC(O)CC2)CCC2(CO2)C1C1(C)OC1CC=C(C)C (stereo not drawn) [Compound 4]
IC50 [1, 4]: 4.6 ± 0.4 nM
IC50 [2, 4]: 6.8 ± 0.3 nM
IC50 [3, 4]: 36 ± 4.2 nM
